Results as given in ChEMBL document CHEMBL1629551, “Evaluation of the antimicrobial, antioxidant, and anti-inflammatory activities of hydroxychavicol for its potential use as an oral care agent” (Antimicrob Agents Chemother, 2009).
Converted amounts (≈) assume the structure as drawn. One block for each molecule: values may come before it. The source made the active and inactive calls. The rule behind the calls is not given here.

Assays:
[1] = Cytotoxicity against human neutrophils at 2.5 to 10 ug/ml after 3 hrs by MTT assay; type: cell-based; settings: neutrophil
Actinomyces viscosus [2] = assay: Antimicrobial activity against Actinomyces viscosus ATCC 15987 assessed as inhibition of biofilm formation after 24 hrs by crystal violet staining; type: functional, organism-based; settings: ATCC 15987, 24 h
Prevotella intermedia [3] = assay: Bactericidal activity against Prevotella intermedia ATCC 25611 after 24 hrs by turbidimetric analysis; type: functional; settings: ATCC 25611, 24 h
Streptococcus sanguinis [4] = assay: Antimicrobial activity against Streptococcus sanguis ATCC 10556 by turbidimetric analysis; type: functional
Streptococcus mutans [5] = assay: Antimicrobial activity against Streptococcus mutans ATCC 25175 at 125 to 500 ug/ml by time kill analysis; type: functional, organism-based; settings: TDE = time-dependent effect
Prevotella intermedia [6] = assay: Antimicrobial activity against Prevotella intermedia ATCC 25611 by turbidimetric analysis; type: functional
Neutrophil [7] = assay: Antiinflammatory activity against human neutrophils assessed as inhibition of LPS-stimulated TNFalpha production at 2.5 ug/ml after 3 hrs by FACS analysis; type: functional, cell-based
Actinomyces viscosus [8] = assay: Antimicrobial activity against Actinomyces viscosus ATCC 15987 assessed as eradication of preformed biofilm after 24 hrs by crystal violet staining; type: functional, organism-based; settings: ATCC 15987, 24 h
Homo sapiens [9] = species: Homo sapiens; assay: Toxicity in healthy human assessed as occurrence of after taste; type: organism-based; settings: in vivo
Neutrophil [10] = assay: Antiinflammatory activity against human neutrophils assessed as inhibition of LPS-stimulated TNFalpha production at 10 ug/ml after 3 hrs by FACS analysis; type: functional, cell-based
Enterococcus faecium [11] = assay: Bactericidal activity against Enterococcus faecium ATCC 8042 after 24 hrs by turbidimetric analysis; type: functional; settings: ATCC 8042, 24 h
Streptococcus mutans [12] = assay: Antimicrobial activity against Streptococcus mutans ATCC 25175 assessed as post antibiotic effect at 250 ug/ml; type: functional
Streptococcus mutans [13] = assay: Antimicrobial activity against adherent cells of Streptococcus mutans ATCC 25175 at 1000 ug/ml; type: functional, organism-based
Streptococcus mutans [14] = assay: Antimicrobial activity against Streptococcus mutans ATCC 25175 after 12 hrs by time kill analysis; type: functional, organism-based
Fusobacterium nucleatum [15] = assay: Bactericidal activity against Fusobacterium nucleatum ATCC 10953 after 24 hrs by turbidimetric analysis; type: functional; settings: ATCC 10953, 24 h
Enterococcus faecalis [16] = assay: Antimicrobial activity against Enterococcus faecalis ATCC 29212 by turbidimetric analysis; type: functional
Streptococcus mutans [17] = assay: Antimicrobial activity against Streptococcus mutans ATCC 25175 assessed as increase in membrane permeability at 1000 ug/ml after 30 mins by propidium iodide staining-based flow cytometry; type: functional, organism-based
[18] = tested on: Aggregatibacter actinomycetemcomitans; assay: Antimicrobial activity against Haemophilus actinomycetemcomitans ATCC 29522 by turbidimetric analysis; type: functional
Streptococcus mutans [19] = assay: Antimicrobial activity against Streptococcus mutans ATCC 25175 assessed as log reduction in bacterial growth at 250 ug/ml measured at 10 hrs by time kill analysis; type: functional
Actinomyces viscosus [20] = assay: Antimicrobial activity against Actinomyces viscosus ATCC 15987 assessed as post antibiotic effect at 2 times MIC; type: functional
Enterococcus faecium [21] = assay: Antimicrobial activity against Enterococcus faecium ATCC 8042 by turbidimetric analysis; type: functional
Streptococcus sanguinis [22] = assay: Bactericidal activity against Streptococcus sanguis ATCC 10556 after 24 hrs by turbidimetric analysis; type: functional; settings: ATCC 10556, 24 h
[23] = tested on: Aggregatibacter actinomycetemcomitans; assay: Bactericidal activity against Haemophilus actinomycetemcomitans ATCC 29522 after 24 hrs by turbidimetric analysis; type: functional; settings: ATCC 29522, 24 h
Streptococcus mutans [24] = settings: ATCC 25175, 1000 ug/ml
Description: Antimicrobial activity against adherent cells of Streptococcus mutans ATCC 25175 assessed as inhibition of water-insoluble glucan synthesis at 1000 ug/ml in presence of sucrose

Actinomyces viscosus [25] = assay: Antimicrobial activity against Actinomyces viscosus ATCC 15987 assessed as increase in membrane permeability at 1000 ug/ml after 30 mins by propidium iodide staining-based flow cytometry; type: functional, organism-based
Actinomyces viscosus [26] = assay: Antimicrobial activity against Actinomyces viscosus ATCC 15987 by turbidimetric analysis; type: functional
Neutrophil [27] = assay: Antiinflammatory activity against human neutrophils assessed as inhibition of LPS-stimulated TNFalpha production at 5 ug/ml after 3 hrs by FACS analysis; type: functional, cell-based
Porphyromonas gingivalis [28] = assay: Antimicrobial activity against Porphyromonas gingivalis ATCC 33277 by turbidimetric analysis; type: functional
Streptococcus mutans [29] = assay: Antimicrobial activity against Streptococcus mutans ATCC 25175 by turbidimetric analysis; type: functional
Actinomyces viscosus [30] = assay: Antimicrobial activity against Actinomyces viscosus ATCC 15987 assessed as post antibiotic effect at 250 ug/ml; type: functional
Liver microsomes = assay: Antioxidant activity in rat liver microsomes assessed as reduction in lipid peroxidation at 10 to 100 ug/ml by thiobarbituric acid assay; type: functional; settings: Microsome
Homo sapiens [31] = species: Homo sapiens; assay: Toxicity in healthy human assessed as occurrence of tingling sensation; type: organism-based; settings: in vivo
Streptococcus mutans [32] = assay: Bactericidal activity against Streptococcus mutans ATCC 25175 after 24 hrs by turbidimetric analysis; type: functional; settings: ATCC 25175, 24 h
Fusobacterium nucleatum [33] = assay: Antimicrobial activity against Fusobacterium nucleatum ATCC 10953 by turbidimetric analysis; type: functional
Actinomyces viscosus [34] = assay: Bactericidal activity against Actinomyces viscosus ATCC 15987 after 24 hrs by turbidimetric analysis; type: functional; settings: ATCC 15987, 24 h
Streptococcus mutans [35] = assay: Antimicrobial activity against Streptococcus mutans ATCC 25175 assessed as inhibition of biofilm formation after 24 hrs by crystal violet staining; type: functional, organism-based; settings: ATCC 25175, 24 h
Streptococcus mutans [36] = assay: Antimicrobial activity against Streptococcus mutans ATCC 25175 assessed as eradication of preformed biofilm after 24 hrs by crystal violet staining; type: functional, organism-based; settings: ATCC 25175, 24 h
Streptococcus mutans [37] = assay: Antimicrobial activity against Streptococcus mutans ATCC 25175 assessed as post antibiotic effect at 2 times MIC; type: functional
Porphyromonas gingivalis [38] = assay: Bactericidal activity against Porphyromonas gingivalis ATCC 33277 after 24 hrs by turbidimetric analysis; type: functional; settings: ATCC 33277, 24 h
Enterococcus faecalis [39] = assay: Bactericidal activity against Enterococcus faecalis ATCC 29212 after 24 hrs by turbidimetric analysis; type: functional; settings: ATCC 29212, 24 h
Neutrophil [40] = assay: Antiinflammatory activity against human neutrophils assessed as inhibition of LPS-stimulated TNFalpha production at 10 ug/ml after 3 hrs by FACS analysis

Structure (SMILES): Cc1ccc(C(C)C)c(O)c1 [THYMOL]
Activity [1]: Non-toxic

IC50 (Actinomyces viscosus [2]): 500 µg/mL (≈ 3330 µM)
MIC (Streptococcus sanguinis [4]): 125 µg/mL (≈ 832 µM)
MIC (Prevotella intermedia [6]): 125 µg/mL (≈ 832 µM)
IC50 (Actinomyces viscosus [8]): 1000 µg/mL (≈ 6660 µM)
MIC (Enterococcus faecalis [16]): 250 µg/mL (≈ 1660 µM)
MIC [18]: 250 µg/mL (≈ 1660 µM)
MIC (Enterococcus faecium [21]): 250 µg/mL (≈ 1660 µM)
MIC (Actinomyces viscosus [26]): 250 µg/mL (≈ 1660 µM)
MIC (Porphyromonas gingivalis [28]): 62.5 µg/mL (≈ 416 µM)
MIC (Streptococcus mutans [29]): 250 µg/mL (≈ 1660 µM)
MIC (Fusobacterium nucleatum [33]): 125 µg/mL (≈ 832 µM)
IC50 (Streptococcus mutans [35]): 500 µg/mL (≈ 3330 µM)
IC50 (Streptococcus mutans [36]): 500 µg/mL (≈ 3330 µM)
Structure (SMILES): C=CCc1ccc(O)c(O)c1 [HYDROXYCHAVICOL]
MBC (Prevotella intermedia [3]): 125 µg/mL (≈ 832 µM)
Activity (Streptococcus mutans [5]): tde
inhibition (Neutrophil [7]): Active
Activity [1]: Non-toxic
Activity (Homo sapiens [9]): Non-toxic
inhibition (Neutrophil [10]): Active
MBC (Enterococcus faecium [11]): 500 µg/mL (≈ 3330 µM)
PAE (Streptococcus mutans [12]): 3.5 h
Activity (Streptococcus mutans [13]): Active
Activity (Streptococcus mutans [14]): Dose-dependent effect
MBC (Fusobacterium nucleatum [15]): 125 µg/mL (≈ 832 µM)
Activity (Streptococcus mutans [17]): Active
log reduction (Streptococcus mutans [19]): 3
PAE (Actinomyces viscosus [20]): 7 h
MBC (Streptococcus sanguinis [22]): 125 µg/mL (≈ 832 µM)
MBC [23]: 500 µg/mL (≈ 3330 µM)
inhibition (Streptococcus mutans [24]): Active
Activity (Actinomyces viscosus [25]): Active
inhibition (Neutrophil [27]): Active
PAE (Actinomyces viscosus [30]): 4 h
inhibition (Liver microsomes): 15%
Activity (Homo sapiens [31]): Non-toxic
MBC (Streptococcus mutans [32]): 500 µg/mL (≈ 3330 µM)
MBC (Actinomyces viscosus [34]): 500 µg/mL (≈ 3330 µM)
PAE (Streptococcus mutans [37]): 6 h
MBC (Porphyromonas gingivalis [38]): 62.5 µg/mL (≈ 416 µM)
MBC (Enterococcus faecalis [39]): 250 µg/mL (≈ 1660 µM)

Structure (SMILES): COc1ccc(C2CNC(=O)C2)cc1OC1CCCC1 (configuration not stated)
inhibition (Neutrophil [40]): Active
